Reference: US10213415B2, “Compounds as opioid receptor modulators” (JANSSEN PHARMACEUTICA NV, priority 2004, dated 2019)
Like-named read-outs stand apart in the source and are kept apart here.

Assays:
[1] = biological target: T1, delta opioid receptor (CHO-hδ cell membranes) (Homo sapiens, UniProt P41143); assay: Delta Opioid Receptor Functional Assay: [35S]GTPγS Binding in CHO-hδ Cell Membranes, Version 1; type: biochemical; settings: read-out: DOR GTP-binding Assay_v1 EC50
T1 construct: purchased Receptor Biology, Inc. (Baltimore, Md.); host or cells: CHO cells (recombinant expression)
Procedure: CHO-hδ cell membranes were purchased from Receptor Biology, Inc. (Baltimore, Md.). 10 mg/ml of membrane protein suspended in 10 mM TRIS-HC pH 7.2, 2 mM EDTA, 10% sucrose.
Membranes were maintained at 4-8° C. A portion (1 ml) of membranes was added into 15 mL cold binding assay buffer. The assay buffer contained 50 mM HEPES, pH 7.6, 5 mM MgCl2, 100 mM NaCl, 1 mM DTT and 1 mM EDTA. The membrane suspension was homogenized with a Polytron for 2 times and centrifuged at 3000 rpm for 10 min. The supernent was then centrifuged at 18,000 rpm for 20 min. The pellet was saved in a tube and 10 ml assay buffer was added into the tube. The pellet and buffer were mixed with a Polytron.
The pellet membranes (20 μg/ml) were preincubated with SPA (10 mg/ml) at 25° C. for 45 min in the assay buffer. The SPA (5 mg/ml) coupled with membranes (10 μg/ml) was then incubated with 0.5 nM [^35S]GTPγS in the same HEPES buffer containing 50 μM GDP in total volume of 200 μl. Increasing concentrations of receptor agonists were used to stimulate [^35S]GTPγS binding. The basal binding was tested in the absent agonists and no specific binding was tested in the present 10 μM unlabeled GTPγS. The data were analyzed on a Top counter.
Data The % of Basal=(stimulate−non specific)*100/(basal−non specific). EC50 values were calculated using a Prism program.

male CD-1 mice = assay: In Vivo Assay: Upper GI Tract Transit (MUGIT); settings: Mus musculus, po, 1 h, dose 30 (mg), p.o., read-out: upper GI transit (% ctrl)
Procedure: Methods: The animals used in these studies were male CD-1 mice, ave. wt. ˜30 g. Mice were housed under 12 h/12 h light/dark cycle, food & water ad lib. On the day of the experiment mice were assigned to experimental groups, including one vehicle-only group (=control). At 30 min before administration of carmine dye, animals were dosed with vehicle or vehicle-plus-compound, mice were returned to their home cages after drug administration. After administration of carmine, the animals were either returned to their home cages (non-stressed) or individually placed in the same metal cages as used in the fecal output or entire GI tract transit to induce a novel environment stress. One hour after administration of carmine, mice were sacrificed by cervical dislocation, the abdomen opened midventrally, the small intestine from pylorus to cecum was removed, the mesentery divided in order to lay the intestine straight & flat—without stretching. The total length of intestine and the length of carmine-dyed intestine were measured in order to determine the percent of the upper GI tract over which transit had occurred as follows: {(Length of carmine-dyed intestine)/(Total length of intestine)}×100=% upper GI transit. The data expressed were group means±SD (or s.e.m.) and data expressed as % of control.

[2] = tested on: novel environment-stressed mice; assay: In Vivo Assay-Stress-Induced Fecal Output (Fecal Output for 1 hr); set-up: species or system mouse; settings: for Fecal Output (# pellets) cpd: novel environment-stressed mice; for Fecal Output (# pellets) cpd / response vs control in vivo at 10 mg/kg / response vs control in vivo at 30 mg/kg: 1 hr; for response vs control in vivo at 10 mg/kg / response vs control in vivo at 30 mg/kg: Mus musculus, po, 1 h
Method in brief: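 Adult male Crl:CD-1(ICR) mice (˜30-35 g; at least 10 per dose group) were split into acclimated non-stressed controls, held individually for 16-18 hr in wire-mesh-bottom cages, and non-acclimated stressed groups. Mice were dosed intragastrically with vehicle or test compound in 0.5% methylcellulose, housed individually in novel cages over absorbent cardboard, and fecal pellets per mouse were counted hourly.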

[3] = 10 mg/kg oral, relative to acclimated control, read-out: Fecal Output cpd % control
[4] = 10 mg/kg oral, relative to novel environment stress (NES) vehicle group, read-out: Fecal Output cpd % NES
[5] = 30 mg/kg oral, relative to acclimated control, read-out: Fecal Output cpd % control
[6] = 30 mg/kg oral, relative to novel environment stress (NES) vehicle group, read-out: Fecal Output cpd % NES

T1 sequence (P41143 whole entry): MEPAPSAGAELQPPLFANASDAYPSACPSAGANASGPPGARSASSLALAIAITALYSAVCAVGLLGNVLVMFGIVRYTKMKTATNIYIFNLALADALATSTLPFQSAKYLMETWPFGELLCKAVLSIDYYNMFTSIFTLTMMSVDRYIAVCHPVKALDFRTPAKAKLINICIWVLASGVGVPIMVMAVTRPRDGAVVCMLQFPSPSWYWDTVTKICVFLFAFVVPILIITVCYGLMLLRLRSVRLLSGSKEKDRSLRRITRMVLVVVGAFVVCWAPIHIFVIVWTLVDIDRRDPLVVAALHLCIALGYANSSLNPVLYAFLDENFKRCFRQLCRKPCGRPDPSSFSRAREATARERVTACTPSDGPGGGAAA

## C[C@H](c1nc(-c2ccccc2)c[nH]1)N(C)C(=O)[C@@H](N)Cc1ccc(C(N)=O)cc1 [Cpd 203]
[1]
  EC50: 0.515 µM

## Cc1cc(C(N)=O)cc(C)c1C[C@H](N)C(=O)N(Cc1ccc(C(=O)O)o1)[C@@H](C)c1nc(-c2ccccc2)c[nH]1 [Cpd 256]
Male CD-1 mice
  response vs control in vivo at 30 mg: 89.7%

## Cc1cc(O)cc(C)c1C[C@H](N)C(=O)N(Cc1nc(-c2ccccc2)c[nH]1)C1CCCCC1 [Cpd 190]
[1]
  EC50: 3.83 µM

## Cc1cc(O)cc(C)c1C[C@H](N)C(=O)N(Cc1nc(-c2ccccc2)c[nH]1)CC1CC1 [Cpd 192]
[1]
  EC50: 0.076 µM
[2]; 10 mg/kg oral
  Fecal Output (# pellets) cpd: 10.5 pellets
[2]; [3]
  response vs control in vivo at 10 mg/kg: 194%
[2]; [4]
  response vs control in vivo at 10 mg/kg: 84%

## Cc1cc(O)cc(C)c1C[C@H](N)C(=O)N(C)[C@@H](C)c1nc(Cc2ccccc2)c[nH]1 [Cpd 205]
[1]
  EC50: 0.032 µM
[2]; 30 mg/kg oral
  Fecal Output (# pellets) cpd: 2.3 pellets
[2]; [5]
  response vs control in vivo at 30 mg/kg: 70.7%
[2]; [6]
  response vs control in vivo at 30 mg/kg: 24.6%

## Cc1cc(O)cc(C)c1C[C@H](N)C(=O)N(Cc1nc(-c2ccc(F)cc2)c(C)[nH]1)C(C)C [Cpd 163]
[1]
  EC50: 0.021 µM

## Cc1cc(O)cc(C)c1C[C@H](N)C(=O)N(Cc1cccc(C(=O)O)c1)[C@@H](C)c1nc(-c2ccccc2)c[nH]1 [Cpd 48]
Male CD-1 mice
  response vs control in vivo at 30 mg: 102%

## Cc1ccccc1-c1nc(CN(C(=O)[C@@H](N)Cc2c(C)cc(O)cc2C)C(C)C)[nH]c1C [Cpd 165]
[1]
  EC50: 0.231 µM

## Cc1cc(C(N)=O)cc(C)c1C[C@H](N)C(=O)N(Cc1ccccc1)[C@@H](C)c1nc(-c2ccccc2)c[nH]1 [Cpd 114]
[1]
  EC50: 0.035 µM
[2]; 30 mg/kg oral
  Fecal Output (# pellets) cpd: 7.8 pellets
[2]; [5]
  response vs control in vivo at 30 mg/kg: 108%
[2]; [6]
  response vs control in vivo at 30 mg/kg: 75.7%
[2]; dose 3.0, oral, NES mice, fecal output 1 hr
  # of pellets, Compound (m) 3.0: 9.6
[2]; dose 3.0, oral, NES mice, vs acclimated control
  Fecal pellet output, Compound (% control) 3.0: 282.4 % control
[2]; dose 3.0, oral, vs vehicle NES group
  Fecal pellet output, Compound (% NES) 3.0: 96 % NES
[2]; dose 10.0, oral, NES mice, fecal output 1 hr
  # of pellets, Compound (m) 10.0: 7.7
[2]; dose 10.0, oral, NES mice, vs acclimated control
  Fecal pellet output, Compound (% control) 10.0: 226.5 % control
[2]; dose 10.0, oral, vs vehicle NES group
  Fecal pellet output, Compound (% NES) 10.0: 77 % NES
[2]; dose 30.0, oral, NES mice, fecal output 1 hr
  # of pellets, Compound (m) 30.0: 5.4
[2]; dose 30.0, oral, NES mice, vs acclimated control
  Fecal pellet output, Compound (% control) 30.0: 159 % control
[2]; dose 30, oral, vs vehicle NES group
  Fecal pellet output, Compound (% NES) 30: 54 % NES

## Cc1cc(O)cc(C)c1C[C@H](N)C(=O)N(C)Cc1nc(-c2ccccc2)c[nH]1 [Cpd 199]
[1]
  EC50: 0.217 µM
[2]; [4]
  response vs control in vivo at 10 mg/kg: 86.7%

## Cc1cc(O)cc(C)c1C[C@H](N)C(=O)N(C)[C@H](C)c1nc(-c2ccccc2)c[nH]1 [Cpd 206]
[1]
  EC50: 0.037 µM
[2]; 10 mg/kg oral
  Fecal Output (# pellets) cpd: 8.6 pellets
[2]; [3]
  response vs control in vivo at 10 mg/kg: 226%
[2]; [4]
  response vs control in vivo at 10 mg/kg: 65.6%

## CCN(C(=O)[C@@H](N)Cc1ccc(O)cc1)[C@H](C)c1nc(-c2ccccc2)c[nH]1 [Cpd 214]
[1]
  EC50: 26 µM

## C[C@H](c1nc(-c2ccccc2)c[nH]1)N(Cc1ccccc1)C(=O)[C@@H](N)Cc1ccc(O)cc1 [Cpd 221]
[1]
  EC50: 0.308 µM
